From US20040110732A1, “Pharmaceutical composition for transdermal or transmucosal administration comprising at least one progestin and/or at least one oestrogen, process for preparing it and uses thereof” (BESINS INTERNATIONAL BELGIQUE, priority 2002, published 2004)

Assay: In vitro percutaneous absorption of 3H estradiol in Franz-type diffusion cells
Protocol: The in vitro percutaneous absorption was studied quantitatively on biopsies of dermatomed human ventral skin, placed in a 1.77 cm^2 Franz static diffusion cell, which allows the dermis to be placed in contact with a survival liquid into which the substance absorbed through the skin will be dosed. The survival liquid consists of a solution of 9 g/L sodium chloride supplemented with 15 g/L of serum albumin. The cells are placed under ambient atmosphere and thermostatically maintained at 37° C. 10 μl of preparation are applied to the entire surface of the epidermis circumscribed by the glass cylinder. During the experiment, samples of the survival liquid are taken at times 2 h, 4 h, 6 h, 8 h and 24 h. For each time, the survival liquid taken is replaced with fresh liquid.

In the case of `C[C@]12CC[C@@H]3c4ccc(O)cc4CC[C@H]3[C@@H]1CC[C@@H]2O` [estradiol, 17β-estradiol], the “cumulative absorption at 24 hours of estradiol” value (control of the ethylglycolic acid test: aqueous-alcoholic estradiol 0.06% solution without hydroxy acid) is reported as 5.26%±1.26%, the “percutaneous absorption of estradiol” value (control of the glycolic acid test: aqueous-alcoholic estradiol 0.06% solution without hydroxy acid) is reported as 6.96%±2.95% and the “percutaneous absorption of estradiol at 24 hours” value (control of the lactic acid test: aqueous-alcoholic solution of estradiol 0.06%, 50% absolute alcohol, no hydroxy acid) is reported as 5.50%±1.76%. For the same molecule, the “cumulative absorption at 24 hours of estradiol” value (ethylglycolic acid at 5%, estradiol 0.06%) was 8.90%±1.29%, the “percutaneous absorption of estradiol” value (glycolic acid at 5% in aqueous-alcoholic solution containing 40% absolute ethanol, estradiol 0.06%) was 17.73%±2.96% and the “flows between 8 and 24 hours” value (lactic acid at 5% in 50% ethanol solution, compared with the control) was “significantly increasing”. The “percutaneous absorption of estradiol at 24 hours” value (lactic acid at 5% in aqueous-alcoholic solution containing 50% ethanol, estradiol 0.06%) was 13.80%±6.78%.
